Values of other authors in patent publication US20070281996A1, “Creatine prodrugs, compositions and uses thereof” (XenoPort, Inc., priority 2006, published 2007).

How the values were obtained:
[1] = following oral creatine supplementation
[2] = healthy volunteers, oral creatine administration (Dechent et al.)

Question: With `CN(CC(=O)O)C(=N)N` [creatine, Creatine] as the compound, how does the “duration of increase in tissue creatine phosphate levels” value [1] read?
Answer: > 14 days

Question: And the “increase of cerebral creatine phosphate” value [2]?
Answer: about 10%
